{"source": "patent US4252970A", "about": "“6-Deoxyneamines” (The Upjohn Company, priority 1979, dated 1981)", "assay_type_in_all_cases": "cell-based", "key": {"K. pneumoniae UC 58": {"test_system": "K. pneumoniae UC 58", "assay": "standard microplate test in BHI Agar (MIC)", "conditions": "Klebsiella pneumoniae, UC58, 37°, 20 hours, read-out: Minimum Inhibitory Concentration", "method": "(§1) The compounds VII, XI, XVβ, XVα and XVI were tested in a standard microplate test in BHI (Brain Heart Infusion) Agar at a concentration of 1 mg./ml. and dilutions thereof at 37° incubation temperature. The end points are read at 20 hours. BHI Agar is supplied by Difco Laboratories, Detroit, Michigan, U.S.A. and has the following compositions: […]"}, "P. rettgeri UC 339": {"test_system": "P. rettgeri UC 339", "assay": "standard microplate test in BHI Agar (MIC)", "conditions": "Providencia rettgeri, UC339, 37°, 20 hours, read-out: Minimum Inhibitory Concentration", "method": "as §1"}, "Ps. aeruginosa UC 95 [1]": {"test_system": "Ps. aeruginosa UC 95", "assay": "standard microplate test in BHI Agar (MIC)", "conditions": "Pseudomonas aeruginosa, UC95, 37°, 20 hours, read-out: Minimum Inhibitory Concentration", "method": "as §1"}, "S. faecalis UC 694": {"test_system": "S. faecalis UC 694", "assay": "standard microplate test in BHI Agar (MIC)", "conditions": "Enterococcus faecalis, UC694, 37°, 20 hours, read-out: Minimum Inhibitory Concentration", "method": "as §1"}, "S. marcescens UC 131": {"test_system": "S. marcescens UC 131", "assay": "standard microplate test in BHI Agar (MIC)", "conditions": "Serratia marcescens, UC131, 37°, 20 hours, read-out: Minimum Inhibitory Concentration", "method": "as §1"}, "S. pyogenes UC 152": {"test_system": "S. pyogenes UC 152", "assay": "standard microplate test in BHI Agar (MIC)", "conditions": "Streptococcus pyogenes, UC152, 37°, 20 hours, read-out: Minimum Inhibitory Concentration", "method": "as §1"}, "S. aureus UC 76": {"test_system": "S. aureus UC 76", "assay": "standard microplate test in BHI Agar (MIC)", "conditions": "Staphylococcus aureus, UC76, 37°, 20 hours, read-out: Minimum Inhibitory Concentration", "method": "as §1"}, "B. cereus UC 3145": {"test_system": "B. cereus UC 3145", "assay": "standard disc plate assay, zones of inhibition (12.5 mm paper discs)", "conditions": "1 mg/ml", "from_the_text": "(§2) The compounds of formulas (V, VII, IX, XI, XIV, XVI, and XIX) are active as antibacterials and can be used in various environments to erradicate or control susceptible microorganisms. Tables I and II set forth the in vitro antibacterial test results for representative compounds of the present invention. The results were obtained with a standard disc plate assay using 12.5 mm paper discs."}, "B. subtilis UC 564": {"test_system": "B. subtilis UC 564", "assay": "standard disc plate assay, zones of inhibition (12.5 mm paper discs)", "from_the_text": "as §2"}, "E. coli UC 51": {"test_system": "E. coli UC 51", "assay": "standard disc plate assay, zones of inhibition (12.5 mm paper discs)", "from_the_text": "as §2"}, "K. pneumoniae UC 57": {"test_system": "K. pneumoniae UC 57", "assay": "standard disc plate assay, zones of inhibition (12.5 mm paper discs)", "from_the_text": "as §2"}, "P. vulgaris UC 93": {"test_system": "P. vulgaris UC 93", "assay": "standard disc plate assay, zones of inhibition (12.5 mm paper discs)", "from_the_text": "as §2"}, "Ps. aeruginosa UC 95 [2]": {"test_system": "Ps. aeruginosa UC 95", "assay": "standard disc plate assay, zones of inhibition (12.5 mm paper discs)", "conditions": "1 mg/ml", "from_the_text": "as §2"}, "S. aureus UC 80": {"test_system": "S. aureus UC 80", "assay": "standard disc plate assay, zones of inhibition (12.5 mm paper discs)", "from_the_text": "as §2"}, "S. schottmuelleri UC 126": {"test_system": "S. schottmuelleri UC 126", "assay": "standard disc plate assay, zones of inhibition (12.5 mm paper discs)", "from_the_text": "as §2"}}}
{"smiles": "NC[C@H]1O[C@H](O[C@H]2[C@H](O)C[C@H](N)C[C@@H]2N)[C@H](N)[C@@H](O)[C@@H]1O", "note": "[6-deoxyneamine (XI), 6-Deoxyneamine]", "values": [{"measurement": "MIC", "setting": "K. pneumoniae UC 58", "result": 7.8, "unit": "µg/mL"}, {"measurement": "MIC", "setting": "P. rettgeri UC 339", "result": 250, "unit": "µg/mL"}, {"measurement": "MIC", "setting": "Ps. aeruginosa UC 95 [1]", "result": "> 500", "unit": "µg/mL"}, {"measurement": "MIC", "setting": "S. faecalis UC 694", "result": "> 500", "unit": "µg/mL"}, {"measurement": "MIC", "setting": "S. marcescens UC 131", "result": 250, "unit": "µg/mL"}, {"measurement": "MIC", "setting": "S. pyogenes UC 152", "result": 15.6, "unit": "µg/mL"}]}
{"smiles": "C[C@@]1(O)C[C@H](N)C[C@H](N)[C@H]1O[C@H]1O[C@H](CN)[C@@H](O)[C@H](O)[C@H]1N", "note": "[6-Deoxy-5-methyl-neamine]", "values": [{"measurement": "MIC", "setting": "P. rettgeri UC 339", "result": "> 500", "unit": "µg/mL"}, {"measurement": "MIC", "setting": "Ps. aeruginosa UC 95 [1]", "result": "> 500", "unit": "µg/mL"}, {"measurement": "MIC", "setting": "S. aureus UC 76", "result": 15.6, "unit": "µg/mL"}]}
{"smiles": "NC[C@H]1O[C@H](O[C@H]2[C@H](O)[C@@H](O)[C@H](N)C[C@@H]2N)[C@H](N)[C@@H](O)[C@@H]1O", "note": "[Neamine]", "values": [{"measurement": "Zones of Inhibition", "setting": "B. cereus UC 3145", "result": 23, "unit": "mm"}, {"measurement": "Zones of Inhibition", "setting": "B. subtilis UC 564; 0.1 mg/ml", "result": 28, "unit": "mm"}, {"measurement": "Zones of Inhibition", "setting": "B. subtilis UC 564; 1 mg/ml", "result": 37, "unit": "mm"}, {"measurement": "Zones of Inhibition", "setting": "E. coli UC 51; 0.1 mg/ml", "result": 18, "unit": "mm"}, {"measurement": "Zones of Inhibition", "setting": "E. coli UC 51; 1 mg/ml", "result": 25, "unit": "mm"}, {"measurement": "Zones of Inhibition", "setting": "K. pneumoniae UC 57; 0.1 mg/ml", "result": 26, "unit": "mm"}, {"measurement": "Zones of Inhibition", "setting": "K. pneumoniae UC 57; 1 mg/ml", "result": 32, "unit": "mm"}, {"measurement": "Zones of Inhibition", "setting": "P. vulgaris UC 93; 0.1 mg/ml", "result": 15, "unit": "mm"}, {"measurement": "Zones of Inhibition", "setting": "P. vulgaris UC 93; 1 mg/ml", "result": 28, "unit": "mm"}, {"measurement": "Zones of Inhibition", "setting": "Ps. aeruginosa UC 95 [2]", "result": 18, "unit": "mm"}, {"measurement": "Zones of Inhibition", "setting": "S. aureus UC 80; 0.1 mg/ml", "result": 18, "unit": "mm"}, {"measurement": "Zones of Inhibition", "setting": "S. aureus UC 80; 1 mg/ml", "result": 26, "unit": "mm"}, {"measurement": "Zones of Inhibition", "setting": "S. schottmuelleri UC 126; 0.1 mg/ml", "result": 15, "unit": "mm"}, {"measurement": "Zones of Inhibition", "setting": "S. schottmuelleri UC 126; 1 mg/ml", "result": 23, "unit": "mm"}]}
